For two compounds, Km results are on record in patent US8298798B2, “Production of C5-C8 alcohols using evolved enzymes and metabolically engineered microorganisms” (The Regents of the University of California, priority 2008, dated 2012).

For orientation: Km means the concentration of substrate that gives half-maximal velocity.

The target in this assay is F381L/V461A KIVD (Lactococcus lactis, UniProt A0A0B8QZ66, form not given/V461A). As to the kind of experiment: coupled enzymatic assay of KIVD decarboxylation activity. Type of assay: biochemical. Particulars: substrate of V461A/F381L KIVD, 30° C., pH 6.8. The text has this:
Protein Expression and Purification. Both gene fragments encoding wild type and F381L/V461A KIVD were amplified from plasmid pZE_LeuABCDKA6 using primers hiskivd_tevfwd and hiskivd_bamrev. After digestion with BamHI, the gene fragments were inserted into expression plasmid pQE9 (Qiagen) to yield pQE_hiskivd_wt and pQE_hiskivd_FL. The ADH6 gene fragment was amplified from yeast genomic DNA using primers hisadh_tevfwd and hisadh_bamrev, digested with BamHI and inserted into pQE9 to generate pQE_hisadh6. Similarly, genes encoding G462D and G462D/S139G LeuA were amplified from plasmid pZE_LeuABCDKA6 using primers hisleua_tevfwd and hisleua_bamrev. After digestion with BamHI, the PCR products were ligated into pQE9 to create pQE_hisleua_GD and pQE_hisleua_GS. […]
Enzymatic Assay of KIVD. […] Inc. Protein concentration was determined by measuring UV absorbance at 280 nm. The decarboxylation activity of KIVD was measured at 30° C. using a coupled enzymatic assay method. […] The reactions were started by adding 2 μl KIVD (final concentration: for KIV, 20 nM wt KIVD, 200 nM F381L/V461A KIVD; for KHV, 50 nM both), and the consumption of NADPH was monitored at 340 nm (extinction coefficient, 6.22 mM^−1 cm^−1). Kinetic parameters (kcat and Km) were determined by fitting initial velocity data to the Michaelis-Menten equation using Origin.

Take `CC(C)C(=O)C(=O)O` [2-Ketoisovalerate]: the Km turned out to be 7.7 mM.

For `CC[C@H](C)CC(=O)C(=O)O` [(S)-2-keto-4-methylhexanoate], the Km was 0.22 mM.
